pIC50: −log10 of the molar value.
How the values were obtained:
MKK4 [1] = biological target: T1, MKK4 (Homo sapiens, UniProt P45985); assay: KINOMEscan competition binding assay, MKK4; conditions: residual percent of control binding (PoC) at 100 nM
T1 construct: S84/D399; host or cells: HEK-293
T1 sequence (P45985 84-399): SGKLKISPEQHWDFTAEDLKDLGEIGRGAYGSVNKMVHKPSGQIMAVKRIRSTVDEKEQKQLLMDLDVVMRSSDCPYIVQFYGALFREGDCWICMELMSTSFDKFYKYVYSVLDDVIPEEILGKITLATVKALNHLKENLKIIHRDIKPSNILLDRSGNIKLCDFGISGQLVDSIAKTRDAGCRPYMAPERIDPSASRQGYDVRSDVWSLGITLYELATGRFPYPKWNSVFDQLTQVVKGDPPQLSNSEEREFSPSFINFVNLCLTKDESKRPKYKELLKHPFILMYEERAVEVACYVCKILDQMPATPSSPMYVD
Procedure, shortened: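 Tested at 100 nM and reported as percent of control binding (PoC). MKK4 was produced in HEK-293 cells and DNA-tagged. Displacement from ligand-coated, blocked beads was read by qPCR of eluted kinase.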

JNK1 [2] = biological target: T2, JNK1 (Homo sapiens, UniProt P45983); assay: KINOMEscan competition binding assay, JNK1; set-up: M1/Q384; host or cells: HEK-293; conditions: ratio PoC (off-target)/PoC (MKK4)
Procedure, shortened: (§1)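 DNA-tagged kinases expressed in HEK-293 cells compete between immobilized ligand on blocked beads and test compound at 100 nM; kinase retained on beads quantified by qPCR of the tag.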
Target sequence in this assay (P45983 1-384 isoform P45983-2): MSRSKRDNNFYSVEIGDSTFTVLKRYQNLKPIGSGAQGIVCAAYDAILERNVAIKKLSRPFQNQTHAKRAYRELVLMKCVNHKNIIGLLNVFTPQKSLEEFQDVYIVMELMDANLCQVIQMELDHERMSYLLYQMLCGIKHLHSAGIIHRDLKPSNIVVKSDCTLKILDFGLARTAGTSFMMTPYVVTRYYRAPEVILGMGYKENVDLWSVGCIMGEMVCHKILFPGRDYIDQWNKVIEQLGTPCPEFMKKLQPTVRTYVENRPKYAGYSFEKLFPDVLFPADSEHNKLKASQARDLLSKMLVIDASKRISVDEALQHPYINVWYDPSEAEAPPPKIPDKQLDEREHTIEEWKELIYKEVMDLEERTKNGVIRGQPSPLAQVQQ

MKK7 [3] = biological target: T3, MKK7 (Homo sapiens, UniProt O14733); assay: KINOMEscan competition binding assay, MKK7; set-up: M1/R419; host or cells: HEK-293; conditions: ratio PoC (off-target)/PoC (MKK4)
T3 sequence (O14733 1-419): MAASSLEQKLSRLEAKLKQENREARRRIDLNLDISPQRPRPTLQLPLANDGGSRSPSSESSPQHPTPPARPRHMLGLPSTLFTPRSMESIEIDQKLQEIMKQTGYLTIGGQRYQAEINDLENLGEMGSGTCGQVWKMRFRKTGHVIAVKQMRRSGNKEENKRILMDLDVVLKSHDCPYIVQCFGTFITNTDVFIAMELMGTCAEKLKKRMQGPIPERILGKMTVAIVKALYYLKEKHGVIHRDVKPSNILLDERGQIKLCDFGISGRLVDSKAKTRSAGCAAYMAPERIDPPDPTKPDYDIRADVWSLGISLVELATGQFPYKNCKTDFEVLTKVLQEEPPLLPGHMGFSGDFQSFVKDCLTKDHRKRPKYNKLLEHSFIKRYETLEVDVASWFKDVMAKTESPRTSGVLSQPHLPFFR
Procedure, shortened: as §1

BRaf = biological target: T4, BRaf (Homo sapiens, UniProt P15056); assay: KINOMEscan competition binding assay, BRaf; conditions: ratio PoC (off-target)/PoC (MKK4)
T4 construct: purchased ProQinase GmbH, Freiburg, Germany (33PanQinase Assay Service)
T4 sequence (P15056 whole entry, species assumed): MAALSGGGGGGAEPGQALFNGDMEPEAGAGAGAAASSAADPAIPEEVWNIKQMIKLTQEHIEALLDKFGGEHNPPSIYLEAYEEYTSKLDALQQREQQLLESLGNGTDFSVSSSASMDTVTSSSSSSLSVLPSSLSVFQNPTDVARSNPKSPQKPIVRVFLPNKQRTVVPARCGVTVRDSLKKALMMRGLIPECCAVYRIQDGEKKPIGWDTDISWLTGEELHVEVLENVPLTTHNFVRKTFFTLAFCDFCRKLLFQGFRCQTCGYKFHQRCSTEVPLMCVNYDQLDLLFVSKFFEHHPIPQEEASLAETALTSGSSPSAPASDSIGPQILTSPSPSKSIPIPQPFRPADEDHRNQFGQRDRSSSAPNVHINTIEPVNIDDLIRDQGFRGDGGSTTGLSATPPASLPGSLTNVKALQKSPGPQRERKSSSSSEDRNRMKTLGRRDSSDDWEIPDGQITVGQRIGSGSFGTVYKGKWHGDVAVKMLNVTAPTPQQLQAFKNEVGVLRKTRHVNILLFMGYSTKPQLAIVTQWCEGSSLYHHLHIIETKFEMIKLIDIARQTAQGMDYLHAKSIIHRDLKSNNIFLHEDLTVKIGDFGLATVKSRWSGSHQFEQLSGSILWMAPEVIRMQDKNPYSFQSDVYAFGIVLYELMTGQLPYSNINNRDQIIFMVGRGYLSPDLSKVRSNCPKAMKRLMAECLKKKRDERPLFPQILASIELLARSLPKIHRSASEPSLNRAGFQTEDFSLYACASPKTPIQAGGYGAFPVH
Procedure, shortened: as §1

MKK4 [4] = biological target: T5, MKK4 (Homo sapiens, UniProt P45985); assay: 33PanQinase enzyme assay, MKK4; type: biochemical; conditions: for pIC50: assay 'IC50', read-out: Potency MKK4 (IC50)
T5 construct: purchased ProQinase GmbH, Freiburg, Germany (33PanQinase Assay Service)
T5 sequence (P45985 1-399): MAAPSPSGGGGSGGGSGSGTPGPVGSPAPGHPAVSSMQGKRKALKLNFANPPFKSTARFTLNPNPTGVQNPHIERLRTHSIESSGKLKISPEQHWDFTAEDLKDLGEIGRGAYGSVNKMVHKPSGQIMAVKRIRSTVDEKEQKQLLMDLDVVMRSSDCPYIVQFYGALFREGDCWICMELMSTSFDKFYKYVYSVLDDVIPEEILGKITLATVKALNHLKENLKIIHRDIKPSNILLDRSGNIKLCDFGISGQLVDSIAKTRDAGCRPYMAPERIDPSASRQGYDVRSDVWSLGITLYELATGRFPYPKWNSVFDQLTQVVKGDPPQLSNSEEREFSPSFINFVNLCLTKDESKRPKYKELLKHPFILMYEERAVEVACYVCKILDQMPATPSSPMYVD
Procedure, shortened: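 Inhibition measured as 33Pi transfer to substrate after a 60-min, 30 °C reaction, acid-stopped and scintillation-counted.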

MKK7 [5] = biological target: T3, MKK7; assay: 33PanQinase enzyme assay, MKK7; type: biochemical; set-up: purchased ProQinase GmbH, Freiburg, Germany (33PanQinase Assay Service); conditions: ratio IC50(MKK7)/IC50(MKK4)
Procedure, shortened: (§2)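 Off-target selectivity is the ratio IC50(off-target)/IC50(MKK4), with IC50 values from least-squares fitting and single-point data as % residual activity. Reactions of enzyme/substrate mix, ATP and compound ran 60 min at 30° C before H3PO4 stop; ^33P incorporation read on a scintillation counter.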

JNK1 [6] = biological target: T2, JNK1; assay: 33PanQinase enzyme assay, JNK1; type: biochemical; set-up: purchased ProQinase GmbH, Freiburg, Germany (33PanQinase Assay Service); conditions: ratio IC50(JNK1)/IC50(MKK4)
Procedure, shortened: as §2
Target sequence in this assay (P45983 whole entry): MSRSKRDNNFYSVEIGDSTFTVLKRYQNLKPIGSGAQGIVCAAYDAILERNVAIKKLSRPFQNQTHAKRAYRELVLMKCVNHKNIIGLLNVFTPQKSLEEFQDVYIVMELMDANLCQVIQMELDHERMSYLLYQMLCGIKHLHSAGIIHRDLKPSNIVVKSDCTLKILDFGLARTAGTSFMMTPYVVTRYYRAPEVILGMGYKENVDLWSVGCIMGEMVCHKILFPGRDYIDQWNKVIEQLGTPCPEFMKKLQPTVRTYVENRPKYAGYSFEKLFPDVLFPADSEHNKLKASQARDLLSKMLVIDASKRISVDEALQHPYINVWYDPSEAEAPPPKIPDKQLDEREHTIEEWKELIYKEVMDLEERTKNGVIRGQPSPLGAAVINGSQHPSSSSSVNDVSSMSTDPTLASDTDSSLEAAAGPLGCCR

CCCS(=O)(=O)Nc1ccc(F)c(C(=O)c2c[nH]c3ncc(-c4ccnnc4)cc23)c1F [Example 49]
MKK4 [% Ctrl @ 100 nM (MKK4 [1]): +++ (PoC < 1) | selectivity based on % Ctrl @100 nM vs. JNK1 (JNK1 [2]): +++ (Ratio > 100) | selectivity based on % Ctrl @100 nM vs. MKK7 (MKK7 [3]): +++ (Ratio > 100) | selectivity based on % Ctrl @100 nM vs. Braf (BRaf): ◯ (3 ≥ Ratio) | pIC50 (MKK4 [4]): 5.00 to 6.00 | Selectivity IVIKK7, IC50(off-target)/IC50(MKK4) (MKK7 [5]): ++ (100 ≥ IC50(off-target)/IC50(MKK4) > 10) | Selectivity JNK1, IC50(off-target)/IC50(MKK4) (JNK1 [6]): ++ (100 ≥ IC50(off-target)/IC50(MKK4) > 10)

CCCS(=O)(=O)Nc1ccc(F)c(C(=O)c2c[nH]c3ncc(-c4cccnc4)cc23)c1F [Example 58]
MKK4 [% Ctrl @ 100 nM (MKK4 [1]): +++ (PoC < 1) | selectivity based on % Ctrl @100 nM vs. JNK1 (JNK1 [2]): +++ (Ratio > 100) | selectivity based on % Ctrl @100 nM vs. MKK7 (MKK7 [3]): +++ (Ratio > 100) | selectivity based on % Ctrl @100 nM vs. Braf (BRaf): ++ (100 ≥ ratio > 10) | pIC50 (MKK4 [4]): 6.00 to 7.00 | Selectivity IVIKK7, IC50(off-target)/IC50(MKK4) (MKK7 [5]): ++ (100 ≥ IC50(off-target)/IC50(MKK4) > 10) | Selectivity JNK1, IC50(off-target)/IC50(MKK4) (JNK1 [6]): ◯ (3 ≥ IC50(off-target)/IC50(MKK4))

O=C(c1c(F)ccc(NS(=O)(=O)CCCO)c1F)c1c[nH]c2ncc(-c3ccc(Cl)cc3)cc12 [Example 67, N-(3-(5-(4-chlorophenyl)-1H-pyrrolo[2,3-b]pyridine-3-carbonyl)-2,4-difluorophenyl)-3-hydroxypropane-1-sulfonamide]
MKK4 [% Ctrl @ 100 nM (MKK4 [1]): ◯ (30 ≤ PoC) | selectivity based on % Ctrl @100 nM vs. JNK1 (JNK1 [2]): ◯ (3 ≥ Ratio) | selectivity based on % Ctrl @100 nM vs. MKK7 (MKK7 [3]): ◯ (3 ≥ Ratio) | selectivity based on % Ctrl @100 nM vs. Braf (BRaf): ◯ (3 ≥ Ratio) | remaining activity at 0.1 µM (MKK4 [4]; single concentration 100 nM, read-out: Potency MKK4 (residual activity, assay at single concentration)): > 90%

CCCS(=O)(=O)Nc1ccc(F)c(C(=O)c2c[nH]c3ncc(-c4cnc[nH]4)cc23)c1F [Example 83, N-(3-(5-(1H-imidazol-5-yl)-1H-pyrrolo[2,3-b]pyridine-3-carbonyl)-2,4-difluorophenyl)propane-1-sulfonamide]
MKK4 [% Ctrl @ 100 nM (MKK4 [1]): +++ (PoC < 1) | selectivity based on % Ctrl @100 nM vs. JNK1 (JNK1 [2]): +++ (Ratio > 100) | selectivity based on % Ctrl @100 nM vs. MKK7 (MKK7 [3]): +++ (Ratio > 100) | selectivity based on % Ctrl @100 nM vs. Braf (BRaf): ◯ (3 ≥ Ratio) | pIC50 (MKK4 [4]): 6.00 to 7.00 | Selectivity IVIKK7, IC50(off-target)/IC50(MKK4) (MKK7 [5]): ++· | Selectivity JNK1, IC50(off-target)/IC50(MKK4) (JNK1 [6]): ◯ (3 ≥ IC50(off-target)/IC50(MKK4))

CCCS(=O)(=O)Nc1ccc(F)c(C(=O)c2c[nH]c3ncc(-c4ccn[nH]4)cc23)c1F [Example 84, N-(3-(5-(1H-pyrazol-5-yl)-1H-pyrrolo[2,3-b]pyridine-3-carbonyl)-2,4-difluorophenyl)propane-1-sulfonamide]
MKK4 [% Ctrl @ 100 nM (MKK4 [1]): +++ (PoC < 1) | selectivity based on % Ctrl @100 nM vs. JNK1 (JNK1 [2]): +++ (Ratio > 100) | selectivity based on % Ctrl @100 nM vs. MKK7 (MKK7 [3]): +++ (Ratio > 100) | selectivity based on % Ctrl @100 nM vs. Braf (BRaf): ◯ (3 ≥ Ratio) | pIC50 (MKK4 [4]): 6.00 to 7.00 | Selectivity IVIKK7, IC50(off-target)/IC50(MKK4) (MKK7 [5]): +++ (IC50(off-target)/IC50(MKK4) > 100) | Selectivity JNK1, IC50(off-target)/IC50(MKK4) (JNK1 [6]): ◯ (3 ≥ IC50(off-target)/IC50(MKK4))

CCCS(=O)(=O)Nc1ccc(F)c(C(=O)c2c[nH]c3ncc(-c4nc[nH]n4)cc23)c1F [Example 85, N-(3-(5-(1H-1,2,4-triazol-3-yl)-1H-pyrrolo[2,3-b]pyridine-3-carbonyl)-2,4-difluorophenyl)propane-1-sulfonamide]
MKK4 [% Ctrl @ 100 nM (MKK4 [1]): + (3 ≤ PoC < 30) | selectivity based on % Ctrl @100 nM vs. JNK1 (JNK1 [2]): ++ (100 ≥ ratio > 10) | selectivity based on % Ctrl @100 nM vs. MKK7 (MKK7 [3]): ++ (100 ≥ ratio > 10) | selectivity based on % Ctrl @100 nM vs. Braf (BRaf): ◯ (3 ≥ Ratio) | pIC50 (MKK4 [4]): 5.00 to 6.00 | Selectivity IVIKK7, IC50(off-target)/IC50(MKK4) (MKK7 [5]): ++ (100 ≥ IC50(off-target)/IC50(MKK4) > 10) | Selectivity JNK1, IC50(off-target)/IC50(MKK4) (JNK1 [6]): ◯ (3 ≥ IC50(off-target)/IC50(MKK4))

CCCS(=O)(=O)Nc1ccc(F)c(C(=O)c2c[nH]c3ncc(-c4nncs4)cc23)c1F [Example 86, N-(3-(5-(1,3,4-thiadiazol-2-yl)-1H-pyrrolo[2,3-b]pyridine-3-carbonyl)-2,4-difluorophenyl)propane-1-sulfonamide]
MKK4 [% Ctrl @ 100 nM (MKK4 [1]): + (3 ≤ PoC < 30) | selectivity based on % Ctrl @100 nM vs. JNK1 (JNK1 [2]): ++ (100 ≥ ratio > 10) | selectivity based on % Ctrl @100 nM vs. MKK7 (MKK7 [3]): ++ (100 ≥ ratio > 10) | selectivity based on % Ctrl @100 nM vs. Braf (BRaf): ◯ (3 ≥ Ratio) | pIC50 (MKK4 [4]): 5.00 to 6.00 | Selectivity IVIKK7, IC50(off-target)/IC50(MKK4) (MKK7 [5]): ++ (100 ≥ IC50(off-target)/IC50(MKK4) > 10) | Selectivity JNK1, IC50(off-target)/IC50(MKK4) (JNK1 [6]): ◯ (3 ≥ IC50(off-target)/IC50(MKK4))

CCCS(=O)(=O)Nc1ccc(F)c(C(=O)c2c[nH]c3ncc(-c4csc(SC)n4)cc23)c1F [Example 87, N-(2,4-difluoro-3-(5-(2-(methylthio)thiazol-4-yl)-1H-pyrrolo[2,3-b]pyridine-3-carbonyl)phenyl)propane-1-sulfonamide]
MKK4 [% Ctrl @ 100 nM (MKK4 [1]): ◯ (30 ≤ PoC) | selectivity based on % Ctrl @100 nM vs. JNK1 (JNK1 [2]): ◯ (3 ≥ Ratio) | selectivity based on % Ctrl @100 nM vs. MKK7 (MKK7 [3]): ◯ (3 ≥ Ratio) | selectivity based on % Ctrl @100 nM vs. Braf (BRaf): ◯ (3 ≥ Ratio) | pIC50 (MKK4 [4]): < 5.00 | Selectivity IVIKK7, IC50(off-target)/IC50(MKK4) (MKK7 [5]): ◯ (3 ≥ IC50(off-target)/IC50(MKK4)) | Selectivity JNK1, IC50(off-target)/IC50(MKK4) (JNK1 [6]): ◯ (3 ≥ IC50(off-target)/IC50(MKK4))

CCCS(=O)(=O)Nc1ccc(F)c(C(=O)c2c[nH]c3ncc(-c4c[nH]c(=O)cn4)cc23)c1F [Example 88, N-(2,4-difluoro-3-(5-(5-oxo-4,5-dihydropyrazin-2-yl)-1H-pyrrolo[2,3-b]pyridine-3-carbonyl)phenyl)propane-1-sulfonamide]
MKK4 [% Ctrl @ 100 nM (MKK4 [1]): +++ (PoC < 1) | selectivity based on % Ctrl @100 nM vs. JNK1 (JNK1 [2]): +++ (Ratio > 100) | selectivity based on % Ctrl @100 nM vs. MKK7 (MKK7 [3]): +++ (Ratio > 100) | selectivity based on % Ctrl @100 nM vs. Braf (BRaf): + (10 ≥ ratio > 3) | pIC50 (MKK4 [4]): 6.00 to 7.00 | Selectivity IVIKK7, IC50(off-target)/IC50(MKK4) (MKK7 [5]): ++ (100 ≥ IC50(off-target)/IC50(MKK4) > 10) | Selectivity JNK1, IC50(off-target)/IC50(MKK4) (JNK1 [6]): ◯ (3 ≥ IC50(off-target)/IC50(MKK4))
